ChEMBL document CHEMBL4396960, “Optimization of 1,3-disubstituted urea-based inhibitors of Zika virus infection” (Bioorg Med Chem Lett, 2019)

system: A549; test: Cytotoxicity against human A549 cells assessed as reduction in cell viability at > antiviral IC50 by MTT assay; assay type: cell-based; conditions: not given

Structure (SMILES)	Activity
C=CCNc1nc(NC(=O)Nc2ccc(Br)cc2)ns1	>= 50%
C=CCSc1nsc(NC(=O)Nc2ccc(Cl)c(C(F)(F)F)c2)n1	>= 50%
C#CCSc1nsc(NC(=O)Nc2ccc(I)cc2)n1	>= 50%
C=CCSc1nc(NC(=S)Nc2ccc(Cl)cc2)ns1	>= 50%
C=CCSc1nnc(NC(=S)Nc2ccc(Cl)c(C(F)(F)F)c2)s1	>= 50%
C=CCSc1nc(NC(=S)Nc2ccc(Br)cc2)ns1	>= 50%
C=CCSc1nsc(NC(=S)Nc2ccc(Cl)c(C(F)(F)F)c2)n1	>= 50%
C#CCSc1nsc(NC(=O)Nc2ccc(Cl)cc2)n1	>= 50%
C=CCSc1nsc(NC(=S)Nc2ccc(Cl)cc2)n1	>= 50%
C=CCSc1nnc(NC(=S)Nc2ccc(Br)cc2)s1	>= 50%
C=CCSc1nnc(NC(=O)Nc2ccc(Cl)cc2)s1	>= 50%
C=CCSc1nc(NC(=O)Nc2ccc(Br)cc2)ns1	>= 50%
C=CCSc1nnc(NC(=O)Nc2ccc(Cl)c(C(F)(F)F)c2)s1	>= 50%
C=CCNc1nc(NC(=O)Nc2ccc(I)cc2)ns1	>= 50%
C#CCSc1nsc(NC(=S)Nc2ccc(Br)cc2)n1	>= 50%
C=CCSc1nc(NC(=O)Nc2ccc(Cl)c(C(F)(F)F)c2)ns1	>= 50%

Structure (SMILES)	Activity
C=CCNc1nc(NC(=O)Nc2ccc(Cl)cc2)ns1	>= 50%
C=CCSc1nsc(NC(=O)Nc2ccc(I)cc2)n1	>= 50%
C#CCSc1nsc(NC(=O)Nc2ccc(Cl)c(C(F)(F)F)c2)n1	>= 50%
C#CCSc1nsc(NC(=S)Nc2ccc(Cl)c(C(F)(F)F)c2)n1	>= 50%
C=CCSc1nc(NC(=O)Nc2ccc(I)cc2)ns1	>= 50%
C=CCSc1nc(NC(=S)Nc2ccc(I)cc2)ns1	>= 50%
C=CCSc1nc(NC(=S)Nc2ccc(Cl)c(C(F)(F)F)c2)ns1	>= 50%
C=CCSc1nsc(NC(=S)Nc2ccc(I)cc2)n1	>= 50%
C=CCSc1nnc(NC(=S)Nc2ccc(I)cc2)s1	>= 50%
C=CCSc1nnc(NC(=O)Nc2ccc(I)cc2)s1	>= 50%
C=CCSc1nsc(NC(=O)Nc2ccc(Br)cc2)n1	>= 50%
C#CCSc1nsc(NC(=O)Nc2ccc(Br)cc2)n1	>= 50%
C=CCSc1nnc(NC(=O)Nc2ccc(Br)cc2)s1	>= 50%
C=CCNc1nc(NC(=O)Nc2ccc(Cl)c(C(F)(F)F)c2)ns1	>= 50%
C=CCSc1nsc(NC(=O)Nc2ccc(Cl)cc2)n1	>= 50%
C=CCSc1nsc(NC(=S)Nc2ccc(Br)cc2)n1	>= 50%

system: A549; test: Cytotoxicity against human A549 cells assessed as reduction in cell viability at <= 1 uM by MTT assay; assay type: cell-based; conditions: not given

Structure (SMILES)	Activity
C=CCNc1nc(NC(=O)Nc2ccc(Br)cc2)ns1	Non-Toxic
C=CCSc1nsc(NC(=O)Nc2ccc(Cl)c(C(F)(F)F)c2)n1	Non-Toxic
C#CCSc1nsc(NC(=O)Nc2ccc(I)cc2)n1	Non-Toxic
C=CCSc1nc(NC(=S)Nc2ccc(Cl)cc2)ns1	Non-Toxic
C=CCSc1nnc(NC(=S)Nc2ccc(Cl)c(C(F)(F)F)c2)s1	Non-Toxic
C=CCSc1nc(NC(=S)Nc2ccc(Br)cc2)ns1	Non-Toxic
C=CCSc1nsc(NC(=S)Nc2ccc(Cl)c(C(F)(F)F)c2)n1	Non-Toxic
C#CCSc1nsc(NC(=O)Nc2ccc(Cl)cc2)n1	Non-Toxic
C=CCSc1nsc(NC(=S)Nc2ccc(Cl)cc2)n1	Non-Toxic
C=CCSc1nnc(NC(=S)Nc2ccc(Br)cc2)s1	Non-Toxic
C=CCSc1nnc(NC(=O)Nc2ccc(Cl)cc2)s1	Non-Toxic
C=CCSc1nc(NC(=O)Nc2ccc(Br)cc2)ns1	Non-Toxic
C=CCSc1nnc(NC(=O)Nc2ccc(Cl)c(C(F)(F)F)c2)s1	Non-Toxic
C=CCNc1nc(NC(=O)Nc2ccc(I)cc2)ns1	Non-Toxic
C#CCSc1nsc(NC(=S)Nc2ccc(Br)cc2)n1	Non-Toxic
C=CCSc1nc(NC(=O)Nc2ccc(Cl)c(C(F)(F)F)c2)ns1	Non-Toxic

Structure (SMILES)	Activity
C=CCNc1nc(NC(=O)Nc2ccc(Cl)cc2)ns1	Non-Toxic
C=CCSc1nsc(NC(=O)Nc2ccc(I)cc2)n1	Non-Toxic
C#CCSc1nsc(NC(=O)Nc2ccc(Cl)c(C(F)(F)F)c2)n1	Non-Toxic
C#CCSc1nsc(NC(=S)Nc2ccc(Cl)c(C(F)(F)F)c2)n1	Non-Toxic
C=CCSc1nc(NC(=O)Nc2ccc(I)cc2)ns1	Non-Toxic
C=CCSc1nc(NC(=S)Nc2ccc(I)cc2)ns1	Non-Toxic
C=CCSc1nc(NC(=S)Nc2ccc(Cl)c(C(F)(F)F)c2)ns1	Non-Toxic
C=CCSc1nsc(NC(=S)Nc2ccc(I)cc2)n1	Non-Toxic
C=CCSc1nnc(NC(=S)Nc2ccc(I)cc2)s1	Non-Toxic
C=CCSc1nnc(NC(=O)Nc2ccc(I)cc2)s1	Non-Toxic
C=CCSc1nsc(NC(=O)Nc2ccc(Br)cc2)n1	Non-Toxic
C#CCSc1nsc(NC(=O)Nc2ccc(Br)cc2)n1	Non-Toxic
C=CCSc1nnc(NC(=O)Nc2ccc(Br)cc2)s1	Non-Toxic
C=CCNc1nc(NC(=O)Nc2ccc(Cl)c(C(F)(F)F)c2)ns1	Non-Toxic
C=CCSc1nsc(NC(=O)Nc2ccc(Cl)cc2)n1	Non-Toxic
C=CCSc1nsc(NC(=S)Nc2ccc(Br)cc2)n1	Non-Toxic

system: Zika virus; test: Potency index, ratio of ASN 07115873 to compound IC50 for Antiviral activity against Zika virus infected in human A549 cells; assay type: functional; conditions: not given

Structure (SMILES)	Ratio IC50
C=CCNc1nc(NC(=O)Nc2ccc(Cl)cc2)ns1	2.2

system: Zika virus; test: Antiviral activity against Zika virus infected in human A549 cells assessed as reduction in viral titer incubated for 48 hrs by plaque assay; assay type: functional, organism-based; conditions: A549, 48 h

Structure (SMILES)	IC50 [nM]
CCCSc1nnc(NC(=O)Nc2ccc(Cl)c(C(F)(F)F)c2)s1	0.149
C=CCSc1nnc(NC(=S)Nc2ccc(Br)cc2C(F)(F)F)s1	46.6
C=CCNc1nc(NC(=O)Nc2ccc(Br)cc2)ns1	0.0977
C=CCSc1nsc(NC(=O)Nc2ccc(Cl)c(C(F)(F)F)c2)n1	0.423
C#CCSc1nsc(NC(=O)Nc2ccc(I)cc2)n1	0.809
C=CCSc1nc(NC(=S)Nc2ccc(Cl)cc2)ns1	2600
C=CCSc1nnc(NC(=S)Nc2ccc(Cl)c(C(F)(F)F)c2)s1	0.0977
C=CCSc1nc(NC(=S)Nc2ccc(Br)cc2)ns1	4100
C=CCSc1nc(NC(=S)Nc2ccc(Br)cc2C(F)(F)F)ns1	2900
C=CCSc1nsc(NC(=S)Nc2ccc(Cl)c(C(F)(F)F)c2)n1	4.9
C=CCSc1nnc(NC(=O)Nc2ccc(Br)cc2C(F)(F)F)s1	9100
C#CCSc1nsc(NC(=O)Nc2ccc(Cl)cc2)n1	1.4
C=CCSc1nsc(NC(=S)Nc2ccc(Cl)cc2)n1	493
C=CCSc1nnc(NC(=S)Nc2ccc(Br)cc2)s1	0.147
C=CCSc1nnc(NC(=O)Nc2ccc(Cl)cc2)s1	0.191
C=CCSc1nc(NC(=O)Nc2ccc(Br)cc2)ns1	1300
C=CCSc1nnc(NC(=O)Nc2ccc(Cl)c(C(F)(F)F)c2)s1	0.111
C=CCNc1nc(NC(=O)Nc2ccc(I)cc2)ns1	0.1
C#CCSc1nsc(NC(=S)Nc2ccc(Br)cc2)n1	706

Structure (SMILES)	IC50 [nM]
C=CCSc1nc(NC(=O)Nc2ccc(Cl)c(C(F)(F)F)c2)ns1	1000
C=CCNc1nc(NC(=O)Nc2ccc(Cl)cc2)ns1	0.0851
C=CCSc1nsc(NC(=O)Nc2ccc(I)cc2)n1	0.414
C#CCSc1nsc(NC(=O)Nc2ccc(Cl)c(C(F)(F)F)c2)n1	0.962
C#CCSc1nsc(NC(=S)Nc2ccc(Cl)c(C(F)(F)F)c2)n1	57.4
O=C(Nc1ccc(Cl)c(C(F)(F)F)c1)Nc1nnc(S)s1	0.982
C=CCSc1nc(NC(=O)Nc2ccc(I)cc2)ns1	1200
C=CCSc1nc(NC(=S)Nc2ccc(I)cc2)ns1	2700
C=CCSc1nc(NC(=S)Nc2ccc(Cl)c(C(F)(F)F)c2)ns1	233
C=CCSc1nsc(NC(=S)Nc2ccc(I)cc2)n1	2600
C=CCSc1nnc(NC(=S)Nc2ccc(I)cc2)s1	0.156
C=CCSc1nnc(NC(=O)Nc2ccc(I)cc2)s1	0.179
C=CCSc1nsc(NC(=O)Nc2ccc(Br)cc2)n1	0.329
C#CCSc1nsc(NC(=O)Nc2ccc(Br)cc2)n1	0.665
C=CCSc1nnc(NC(=O)Nc2ccc(Br)cc2)s1	0.144
C=CCNc1nc(NC(=O)Nc2ccc(Cl)c(C(F)(F)F)c2)ns1	0.114
C=CCSc1nsc(NC(=O)Nc2ccc(Cl)cc2)n1	0.191
C=CCSc1nsc(NC(=S)Nc2ccc(Br)cc2)n1	2100
